This is an account of results in patent publication US20150038435A1, “N-TERMINALLY MODIFIED OLIGOPEPTIDES AND USES THEREOF” (Novo Nordisk A/S, priority 2012, published 2015).

In this test the target is Chymotrypsin. Put plainly: Inhibition of insulin degradation, HPLC assay (Example 201). The class given is biochemical. Particulars: for pKi: substrate A14E, B25H, B29K(N(eps)Octadecanedioyl-γGlu-OEG-OEG), desB30 human insulin. How it is done:
Degradation using duodenum lumen enzymes (prepared by filtration of duodenum lumen content) from SPD rats.
Each HPLC vial contained Dulbecco's phosphate buffer saline (DPBS, Invitrogen catalogue #14190-094), A14E, B25H, B29K(N(eps)Octadecanedioyl-γGlu-OEG-OEG), desB30 human insulin, N-terminally acylated peptide or oligopeptide of the invention and enzyme (chymotrypsin, trypsin, elastase or duodenum lumen enzymes).
The assay was performed in an HPLC autosampler equilibrated at 37° C., at specified time points, aliquots were injected directly onto an HPLC column and the amount of the intact A14E, B25H, B29K(N(eps)Octadecanedioyl-γGlu-OEG-OEG), desB30 human insulin was determined. Degradation half life was determined by exponential fitting of the data (for example, single exponential decay, 2 parameters, Sigma Plot version 11, Systat Software) and normalized to half time determined for the reference insulins, or human insulin in each assay. […] This was done by plotting the half life achieved with different concentrations of the N-terminally acylated peptide or oligopeptides of the invention as a function of their concentrations and fitting the experimental results using, for example, sigmoidal logistic regression (2 parameters, Sigma Plot v 11). Inhibition constants for the interaction between the N-terminally acylated peptide or oligopeptides of the invention and proteolytic enzymes were also obtained by performing the assay described above with varying concentrations of the inhibitor and substrate and analyzing the results, for example, by double reciprocal transformation as known to the person skilled in the art and described for example in Hubalek, F. et al., J. Med. Chem. 47, 1760-1766 (2004). Other algorithms known to the person skilled in the art may also be used to determine inhibition constants from the results.

The structures appear in SMILES notation. pKi: −log10 of the molar value. Residues, ends and D or L forms follow the SMILES beside them. *: point of attachment. Lauroyl = CCCCCCCCCCCC(=O)*

The term pKi denotes the Ki on a negative log10 scale, so that one unit is a factor of ten. A lower pKi goes with a large Ki. In turn, `CCCCCCCCCCCC(=O)N[C@@H](C)C(=O)N[C@@H](C)C(=O)N1CCC[C@H]1C(=O)N[C@@H](Cc1ccccc1)C(=O)O` [Example 34, N-dodecanoyl-Ala-Ala-Pro-Phe-OH] (Lauroyl-AAPF-OH) had a pKi of 4.82. For the setting “chymotrypsin, insulin analogue as substrate”, the “kind of enzyme inhibition” value was “mixed inhibition”. For the same compound, where the note is “chymotrypsin”, the negative-log Ki (pKi) is roughly 4.82.
